Literature values as cited in article PMC4948595 (Journal of Medicinal Chemistry, 2016).

Test system: influenza endonuclease

O=c1[nH]cc(-c2ccc(-c3nnn[nH]3)cc2)cc1O [Parhi-6]
IC50: 368 ± 41 nM
